Experimental data taken from paper PMC7687369 (Antiviral Research, 2020).

Columns and labels:
SARS-CoV-2 [1] = assay type: cell-based; conditions: Vero E6-hTMPRSS2 cells
SARS-CoV-2 [2] = assay: Viral replication assay in Vero E6-hTMPRSS2 cells; assay type: cell-based
SARS-CoV-2 [3] = assay type: cell-based
MERS-CoV = conditions: cited from earlier work
SARS-CoV = conditions: cited from earlier work

CNc1ccc2oc(C[C@H]3O[C@@]4(CC[C@H]3C)O[C@H]([C@H](C)C(=O)c3ccc[nH]3)[C@H](C)C[C@H]4C)nc2c1C(=O)O [Calcimycin]
selectivity between viral-induced cytopathogenicity and inhibition of cell viability (SARS-CoV-2 [1]): 18 fold

CCN(CCO)CCCC(C)Nc1ccnc2cc(Cl)ccc12 (stereo not drawn) [Hydroxychloroquine]
inhibition of viral replication (in words) (SARS-CoV-2 [2]): did not efficiently inhibit viral replication
antiviral activity, SARS-CoV-2 RNA (in words) (SARS-CoV-2 [3]): effective in wildtype Vero E6 cells at high micromolar concentrations
anti-viral activity in the cytopathogenic effect screen (in words) (SARS-CoV-2 [1]): negligible anti-viral activity

CC[C@@]1([C@@H]2O[C@@H]([C@H]3O[C@@](O)(CO)[C@H](C)C[C@@H]3C)C[C@@H]2C)CC[C@H]([C@]2(C)CC[C@]3(C[C@H](O)[C@@H](C)[C@@H]([C@@H](C)[C@@H](OC)[C@H](C)C(=O)O)O3)O2)O1 [Monensin]
inhibition of the cytopathogenic effect of MERS-CoV (MERS-CoV): could inhibit the cytopathogenic effect of MERS-CoV
inhibition of the cytopathogenic effect of SARS-CoV (SARS-CoV): but not SARS-CoV

C[C@H](CCC(=O)O)C[C@H](C)C[C@H](C)C(=O)/C=C(\O)[C@H](C)C[C@H](C)C/C=C/[C@@H](C)[C@@H](O)[C@@H](C)[C@@H](O)C[C@@H]1CC[C@@](C)([C@H]2CC[C@@](C)([C@@H](C)O)O2)O1 [Ionomycin]
selectivity between viral-induced cytopathogenicity and inhibition of cell viability (SARS-CoV-2 [1]): 5 fold

CCC(CC)COC(=O)[C@H](C)N[P@](=O)(OC[C@H]1O[C@@](C#N)(c2ccc3c(N)ncnn23)[C@H](O)[C@@H]1O)Oc1ccccc1 [Remdesivir]
selectivity between viral-induced cytopathogenicity and inhibition of cell viability (SARS-CoV-2 [1]): > 67 fold

CC[C@@H](C(=O)[C@@H](C)[C@@H](O)[C@H](C)[C@@H]1O[C@@H]([C@@H](CC)C(=O)O)CC[C@@H]1C)[C@H]1O[C@]2(C=C[C@@H](O)[C@]3(CC[C@@](C)([C@H]4CC[C@](O)(CC)[C@H](C)O4)O3)O2)[C@H](C)C[C@@H]1C [Salinomycin]
inhibition of the cytopathogenic effect of MERS-CoV (MERS-CoV): could inhibit the cytopathogenic effect of MERS-CoV
inhibition of viral replication (in words) (SARS-CoV-2 [2]): potent inhibition
inhibition of the cytopathogenic effect of SARS-CoV (SARS-CoV): but not SARS-CoV

CO[C@@H]1[C@@H](OC)[C@H](C)[C@@](O)(CC(=O)O)O[C@H]1[C@H](C)[C@H]1O[C@@]2(CC[C@@](C)([C@H]3CC[C@@](C)([C@@H]4O[C@@H]([C@H]5O[C@](C)(O)[C@H](C)C[C@@H]5C)C[C@@H]4O[C@@H]4C[C@H](OC)[C@@H](OC)[C@H](C)O4)O3)O2)C[C@H](O)[C@H]1C [Maduramycin]
selectivity between viral-induced cytopathogenicity and inhibition of cell viability (SARS-CoV-2 [1]): 313 fold
